The experiment addresses T1, bovine pancreatic PLA2 (Bos taurus, UniProt P00593).
T1 construct: from tissue; host or cells: bovine pancreas
Description: Phospholipase A2 (PLA2) activity, enzyme assay. Format: biochemical. On the procedure: Phospholipase A2 (PLA2) activity was measured using bovine pancreatic PLA2 as the enzyme and a sonicated dispersion of 1-stearoyl-2-[C^14 ]-arachidonyl-phosphatidylcholine (56 mCi/mmol) as the substrate in the following manner: 60 ng bovine pancreatic PLA2 was mixed and incubated with buffer and inhibitors (100 mM Tris, pH 8; 100 mM CaCl2; 20 mM EDTA, pH 8) at 37° C. for 10 min. to allow interaction between the enzyme and the drugs. The substrate (38 nCi) in buffer and 0.3% cholate was added to initiate the reaction which continued for 20 min. at 37° C. The total reaction volume was 0.1 ml. The reaction was stopped by adding 0.1 ml of an ice cold EtOH/HOAc 98:2 mixture. Released arachidonic acid was separated from the unreacted substrate via thin layer chromatography on silica gel (solvent system CHCl3 /MeOH/H2 O 14:6:1). The radioactivity of the two spots was quantified using a bioscanner.
Inhibitors were dissolved in buffer^13 and tested in duplicate within each experiment, and each inhibitor was tested in at least two experiments. When necessary, inhibitors were dissolved in DMSO^14. The % inhibition at a given concentration was combined for several experiments and the IC50 determined from a semilog plot of % inhibition vs concentration. Under the condition described the rate of hydrolysis was 20-25% of the substrate being hydrolyzed in absence of inhibitors.
^13 0.01 ml inhibitor solution were used in these experiments.
^14 0.005 ml inhibitor solution were used in these experiments (=5 vol %).

[1] abbreviates: Table 20, from semilog plot of % inhibition vs concentration, substrate 1-stearoyl-2-[C^14]-arachidonyl-phosphatidylcholine, 37° C., pH 8, 20 min.
Setting [2] is: Table 20, from semilog plot of % inhibition vs concentration, substrate 1-stearoyl-2-[C^14]-arachidonyl-phosphatidylcholine, 37° C., pH 8, 20 min, read-out: IC50.

Each structure is given as a SMILES string. Read-outs that look alike come from different tables or passages of the source.

T1 sequence (P00593 23-145): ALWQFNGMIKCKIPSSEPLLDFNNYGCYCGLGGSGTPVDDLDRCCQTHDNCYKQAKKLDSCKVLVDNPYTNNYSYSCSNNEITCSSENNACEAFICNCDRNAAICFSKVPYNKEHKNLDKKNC

Broadly, the inhibition is the relative decrease from the control value, in per cent. `O=S(=O)(Nc1ccc(-c2ccccc2)cc1)c1cccc2cnccc12` [Compound 41, N-biphenyl-5-isoquinolinesulfonamide] registered an inhibition at 100 µM of 28.3%. Moreover, the IC50 entry under setting [1] is given as “promotion”. Besides, the inhibition at 10 µM (at 10 μM) was 31.6%.

For `O=C([C@H](Cc1ccccc1)NS(=O)(=O)c1ccccc1)N1CCNCC1` [Compound 1, N-benzenesulfonyl-L-phenylalanine piperazineamide], under setting [1], the IC50 entry is “promotion”.

For the compound `O=C(Nc1ccc(-c2ccccc2)cc1)[C@H]1CCCN1S(=O)(=O)c1cccc2cnccc12` [Compound 40, N-(5-isoquinolinesulfonyl)-D-proline biphenylamide], the IC50 under setting [2] stood at 435 µM. With `O=S(=O)(Nc1ccc(-c2ccccc2)cc1)c1cccc2c(Cl)cccc12` [Compound 30, N-biphenyl-5-chloro-1-naphthalenesulfonamide], the IC50 under setting [2] is 275 µM. Take `O=S(=O)(Nc1ccccc1)c1cccc2c(Cl)cccc12` [compound 43, reference compound]: under setting [2], the IC50 came out at 190 µM. With `O=C([C@H](Cc1ccccc1)NS(=O)(=O)c1cccc2cnccc12)N1CCNCC1` [Compound 31, N-(5-isoquinolinesulfonyl)-L-phenylalanine piperazineamide], the inhibition at 100 µM stood at 70.1%. Also, the IC50 result under setting [1] is recorded as “promotion”. Where the note is “at 300 μM”, the inhibition at 300 µM was found to be 54%.

In the case of `CC(C)[C@H](NS(=O)(=O)c1cccc2c(Cl)cccc12)C(=O)N1CCNCC1` [Compound 22, N-(5-chloro-1-naphthalenesulfonyl)-L-valine piperazineamide], the IC50 under setting [2] came out at 310 µM.

Take `C[C@H](NS(=O)(=O)c1ccccc1)C(=O)N1CCNCC1` [Compound 2, N-benzenesulfonyl-L-alanine piperazineamide]: the IC50 entry under setting [1] is recorded as “promotion”. As for `O=C(Nc1ccc(-c2ccccc2)cc1)[C@@H]1CCCN1S(=O)(=O)c1ccccc1` [Compound 10, N-benzenesulfonyl-L-proline biphenylamide], the IC50 under setting [2] was found to be 520 µM. Still for that read-out and setting: as for `O=C(Nc1ccc(-c2ccccc2)cc1)[C@H](Cc1ccccc1)NS(=O)(=O)c1ccccc1` [Compound 7, N-benzenesulfonyl-L-phenylalanine biphenylamide], the figure is 310 µM; as for `O=C(Nc1ccc(-c2ccccc2)cc1)[C@@H]1CCCN1S(=O)(=O)c1cccc2cnccc12` [Compound 38, N-(5-isoquinolinesulfonyl)-L-proline biphenylamide], 130 µM.

Regarding `CC(C)[C@H](NS(=O)(=O)c1cccc2cnccc12)C(=O)Nc1ccc(-c2ccccc2)cc1` [Compound 37, N-(5-isoquinolinesulfonyl)-L-valine biphenylamide], under setting [2], the IC50 is 470 µM.

Regarding `O=C(Nc1ccc(-c2ccccc2)cc1)[C@H](Cc1c[nH]c2ccccc12)NS(=O)(=O)c1ccccc1` [Compound 11, N-benzenesulfonyl-L-tryptophane biphenylamide], the IC50 under setting [2] was 570 µM. On the same count and under the same terms, in the case of `O=C([C@H](Cc1ccccc1)NS(=O)(=O)c1cccc2c(Cl)cccc12)N1CCNCC1` [Compound 21, N-(5-chloro-1-naphthalenesulfonyl)-L-phenylalanine piperazineamide] it was 600 µM.

Take `NCCCCCCNC(=O)[C@H](Cc1ccccc1)NS(=O)(=O)c1cccc2c(Cl)cccc12` [Compound 25, N-(5-chloro-1-naphthalenesulfonyl)-L-phenylalanine-1,6-diaminohexaneamide]: the IC50 (text example, read-out: IC50 (concentration which would bring about an inhibition of 50%)) was found to be 67 µM. On to `NCCCCCCNC(=O)[C@H](Cc1ccccc1)NS(=O)(=O)c1cccc2cnccc12` [Compound 35, N-(5-isoquinolinesulfonyl)-L-phenylalanine-1,6-diaminohexaneamide], for which, under setting [2], the IC50 was determined as 263 µM.

The record behind these values is patent US5663174A, “Aromatic sulfonamide derivatives, their use as enzyme inhibitors and pharmaceutical compositions containing them” (Pharno-Wedropharm GmbH, priority 1997, dated 1997).
